The record followed here is patent US20080293712A1, “Benzo[C][2,7]Naphtyridine Derivatives, Methods of Making Thereof and Methods of Use Thereof” (WYETH, priority 2007, published 2008).

Like-named read-outs stand apart in the source and are kept apart here. Some results are limits rather than exact numbers.

What all share (assay type): biochemical
The target in one test is PKA (Homo sapiens, UniProt P17612). The test can be described thus: PKA kinase inhibition, Z'-LYTE FRET assay.
In the next test the target is S6K (Homo sapiens, UniProt P23443). The test can be described thus: S6K kinase inhibition, Z'-LYTE FRET assay. As to conditions: 100 μM ATP. The text has this:
(§1) The ability of illustrative Benzo[c][2,7]naphthyridine Derivatives to inhibit PKA, Akt1, S6K in vitro can be determined using a Fluorescence Resonance Energy Transfer (FRET) assay, such as a Z′-LYTE™ Kinase Assay Platform, commercially available from Invitrogen (c.f. Rodems et al., ASSAY Drug Devel. Technol. 1:9-19 (2002) and Zhang et al., J. Biomol. Screen. 4:67-73 (1999)). Z′-Lyte™ assay is an in vitro FRET-based assay that utilizes differential sensitivity of phosphorylated and non-phosphorylated peptides to proteolytic cleavage. The peptide substrate (also available from Invitrogen for each of PKA, Akt1 and S6K) is labeled with two different fluorophores, a fluorescence donor at one end of the peptide and a fluorescence acceptor at the other end of the peptide. In the primary kinase reaction, the kinase phosphorylates the peptide substrate in the presence of ATP. In the secondary reaction, a site-specific protease recognizes and cleaves non-phosphorylated peptides, but not phosphorylated peptides. Cleavage disrupts FRET between the donor and acceptor fluorophores on the peptide, whereas uncleaved phosphorylated peptides maintain FRET. Based on a formula that uses the ratio of donor emission (at 460 nm) to acceptor emission (at […]) after excitation of the donor fluorophore at 400 nm, the extent of phosphorylation of the peptide substrates is calculated. IC50 values of illustrative Benzo[c][2,7]naphthyridine Derivatives, shown in Table 12, are calculated using LSW Data Analysis package add-in for Excel (Microsoft).

For the next test, the target named is T1, PDK-1 (Homo sapiens, UniProt O15530).
T1 sequence (O15530 1-556): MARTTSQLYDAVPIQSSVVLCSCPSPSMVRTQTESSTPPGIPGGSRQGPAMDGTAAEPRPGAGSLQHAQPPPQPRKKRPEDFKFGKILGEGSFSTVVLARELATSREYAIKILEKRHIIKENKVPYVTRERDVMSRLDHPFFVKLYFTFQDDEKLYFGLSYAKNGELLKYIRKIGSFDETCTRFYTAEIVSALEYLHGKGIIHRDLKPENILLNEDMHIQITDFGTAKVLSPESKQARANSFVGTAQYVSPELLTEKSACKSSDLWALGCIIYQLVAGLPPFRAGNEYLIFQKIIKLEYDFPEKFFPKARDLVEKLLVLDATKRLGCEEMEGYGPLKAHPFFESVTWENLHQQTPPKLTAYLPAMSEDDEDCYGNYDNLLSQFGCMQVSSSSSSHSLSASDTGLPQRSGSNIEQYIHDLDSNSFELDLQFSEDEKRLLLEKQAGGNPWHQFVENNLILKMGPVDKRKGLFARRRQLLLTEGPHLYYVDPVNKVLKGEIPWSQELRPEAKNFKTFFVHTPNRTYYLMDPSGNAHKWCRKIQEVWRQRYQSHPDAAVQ
The experiment in a line: PDK-1 kinase inhibition ELISA assay (phosphorylation of His6-tagged SGK1 S422D by PDK-1).

The target of the next test is Akt1 (Homo sapiens, UniProt P31749). The experiment in a line: Akt1 kinase inhibition, Z'-LYTE FRET assay. As to conditions: 100 μM ATP.
Chain of Akt1 (P31749 whole entry, species assumed): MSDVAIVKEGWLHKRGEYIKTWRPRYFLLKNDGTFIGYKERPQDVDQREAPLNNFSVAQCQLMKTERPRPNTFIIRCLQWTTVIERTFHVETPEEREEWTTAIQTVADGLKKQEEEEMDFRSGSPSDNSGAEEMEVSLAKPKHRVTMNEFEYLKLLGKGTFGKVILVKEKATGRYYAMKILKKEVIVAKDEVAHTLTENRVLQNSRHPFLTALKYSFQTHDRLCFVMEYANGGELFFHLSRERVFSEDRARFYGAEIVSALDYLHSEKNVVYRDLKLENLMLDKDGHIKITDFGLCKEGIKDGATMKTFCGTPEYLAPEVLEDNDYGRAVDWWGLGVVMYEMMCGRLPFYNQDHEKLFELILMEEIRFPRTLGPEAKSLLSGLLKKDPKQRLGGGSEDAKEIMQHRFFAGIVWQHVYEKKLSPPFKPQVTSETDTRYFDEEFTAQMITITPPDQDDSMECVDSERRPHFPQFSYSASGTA
Text: as §1

The mark [1] stands for this setting: PDK-1 ELISA, Table 11, read-out: Average IC50.

Chain of S6K (P23443 whole entry): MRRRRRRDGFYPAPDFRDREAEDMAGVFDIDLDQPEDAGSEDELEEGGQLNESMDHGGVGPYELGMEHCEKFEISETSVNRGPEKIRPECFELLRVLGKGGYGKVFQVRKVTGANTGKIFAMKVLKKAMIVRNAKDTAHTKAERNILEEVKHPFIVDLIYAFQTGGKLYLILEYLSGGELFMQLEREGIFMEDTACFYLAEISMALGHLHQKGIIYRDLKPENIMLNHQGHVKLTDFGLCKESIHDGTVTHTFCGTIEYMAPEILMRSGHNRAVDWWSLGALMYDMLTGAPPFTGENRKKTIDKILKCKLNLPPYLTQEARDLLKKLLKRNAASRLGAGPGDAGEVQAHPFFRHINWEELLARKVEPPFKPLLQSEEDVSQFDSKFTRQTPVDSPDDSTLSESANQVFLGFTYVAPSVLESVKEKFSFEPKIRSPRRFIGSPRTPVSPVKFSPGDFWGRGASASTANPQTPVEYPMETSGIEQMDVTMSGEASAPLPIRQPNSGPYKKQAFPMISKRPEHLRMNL

Take `COc1cc2ncc3c(N)nc(-c4cncc(OC[C@@H](N)Cc5ccc(F)cc5)c4)cc3c2cc1OCc1ccccc1` [Ia-1, 2-(5-{[(2S)-2-Amino-3-(4-fluorophenyl)propyl]oxy}pyridin-3-yl)-9-(benzyloxy)-8-methoxybenzo[c]-2,7-naphthyridin-4-amine]: the IC50 was > 2000 nM on PKA (100 μM ATP), > 2000 nM on S6K and > 100 nM on PDK-1 (setting [1]).

As to `COCCOc1cc2ncc3c(N)nc(-c4cccnc4)cc3c2cc1OC` [Ia-2, 9-Methoxy-8-(2-methoxyethoxy)-2-pyridin-3-ylbenzo[c]-2,7-naphthyridin-4-amine], the figures for the IC50 against PKA (100 μM ATP), against S6K and against PDK-1 were > 2000 nM, 542 nM and 43 nM, respectively.

Consider `Nc1nc(-c2cncc(OC[C@@H](N)Cc3ccccc3)c2)cc2c1cnc1ccccc12` [Ia-3, 2-(5-{[(2S)-2-Amino-3-phenylpropyl]oxy}pyridin-3-yl)benzo[c]-2,7-naphthyridin-4-amine], for which the IC50 against PKA (20 μM ATP) was 300 nM; on PKA (100 μM ATP), 911 nM; on S6K it was 1200 nM; at PDK-1 (setting [1]), 104 nM.

For `COc1cc2c(cc1OCCCN1CCCC1)ncc1c(N)nc(-n3ccnc3)cc12` [Ia-15, 2-(1H-imidazol-1-yl)-9-methoxy-8-(3-(pyrrolidin-1-yl)propoxy)benzo[c][2,7]naphthyridin-4-amine], the results for the IC50 on PKA (20 μM ATP), at Akt1 and on PDK-1 (setting [1]) were > 10000 nM, 380 nM and 498 nM, respectively.

As to `COc1cc2c(cc1OCCCN1CCOCC1)ncc1c(N)nc(-n3ccnc3)cc12` [Ia-16, 2-(1H-imidazol-1-yl)-9-methoxy-8-(3-morpholinopropoxy)benzo[c][2,7]naphthyridin-4-amine], the IC50 against PKA (20 μM ATP) was > 10000 nM; at Akt1 it was 380 nM; at PDK-1 (setting [1]), 170 nM.

On to `CCN1CCN(CCC#Cc2ccc3ncc4c(N)nc(-n5ccnc5)cc4c3c2)CC1` [Ia-18, 9-[4-(4-Ethylpiperazin-1-yl)but-1-yn-1-yl]-2-(1H-imidazol-1-yl)benzo[c]-2,7-naphthyridin-4-amine], for which the IC50 at PKA (20 μM ATP) is > 10000 nM; against Akt1 it was > 10000 nM; at PDK-1 (setting [1]), > 3000 nM.

As for `COc1cc2c(cc1N1CCC(N3CCCC3)CC1)ncc1c(N)nc(-c3cccnc3)cc12` [Ia-20, 9-methoxy-2-pyridin-3-yl-8-(4-pyrrolidin-1-ylpiperidin-1-yl)benzo[c]-2,7-naphthyridin-4-amine], the figures for the IC50 at PKA (20 μM ATP), against Akt1 and on PDK-1 (setting [1]) were > 20000 nM, 300 nM and 893 nM, respectively.

For the compound `CCN1CCN(CC/C=C/c2ccc3c(c2)ncc2c(N)nc(-n4ccnc4)cc23)CC1` [Ia-25, 8-[(1E)-4-(4-ethylpiperazin-1-yl)but-1-en-1-yl]-2-(1H-imidazol-1-yl)benzo[c]-2,7-naphthyridin-4-amine], the IC50 was determined as 1250 nM against PKA (20 μM ATP), 230 nM against Akt1 and 116 nM on PDK-1 (setting [1]).

For `CCOc1cc2ncc3c(N)nc(-n4ccnc4)cc3c2cc1NC(=O)Nc1ccc(N(C)C)cc1` [Ia-27, N-[4-amino-8-ethoxy-2-(1H-imidazol-1-yl)benzo[c]-2,7-naphthyridin-9-yl]-N′-[4-(dimethylamino)phenyl]urea], the IC50 on PKA (20 μM ATP) was > 20000 nM; against Akt1 it was 16000 nM; at PDK-1 (setting [1]) it was 617 nM.

For the compound `CCOc1cc2ncc3c(N)nc(-n4ccnc4)cc3c2cc1NC(C)=O` [Ia-29, N-[4-amino-8-ethoxy-2-(1H-imidazol-1-yl)benzo[c]-2,7-naphthyridin-9-yl]acetamide], the half-maximal inhibitory concentration (IC50) is > 5000 nM at PKA (20 μM ATP), > 5000 nM on Akt1 and 385 nM on PDK-1 (setting [1]).

`Nc1nc(-n2ccnc2)cc2c1cnc1cc(C#CCCn3ccnc3)ccc12` [Ia-30, 2-(1H-imidazol-1-yl)-8-[4-(1H-imidazol-1-yl)but-1-yn-1-yl]benzo[c]-2,7-naphthyridin-4-amine]: the IC50 is > 20000 nM against PKA (20 μM ATP), 15000 nM against Akt1 and 179 nM at PDK-1 (setting [1]).

In the case of `COc1cc2c(cc1OCC1CCN(C)CC1)ncc1c(N)nc(-c3cnccn3)cc12` [Ia-32], the figures for the IC50 against PKA (20 μM ATP), at Akt1 and at PDK-1 (setting [1]) were > 20000 nM, 250 nM and 754 nM, respectively.

For the compound `COc1cc2c(cc1OCc1ccccc1)ncc1c(N)nc(-n3ccnc3)cc12` [Ia-34, 8-(Benzyloxy)-2-(1H-imidazol-1-yl)-9-methoxybenzo[c]-2,7-naphthyridin-4-amine], the concentration for half-maximal inhibition (IC50) at PKA (20 μM ATP) is > 20000 nM; against Akt1, 180 nM; on PDK-1 (setting [1]), 193 nM.

Turning to `CCN1CCN(CCC#Cc2ccc3c(c2)ncc2c(N)nc(-n4ccnc4)cc23)CC1` [Ia-35, 8-[4-(4-ethylpiperazin-1-yl)but-1-yn-1-yl]-2-(1H-imidazol-1-yl)benzo[c]-2,7-naphthyridin-4-amine], the IC50 at PKA (20 μM ATP) came out at 6000 nM; against Akt1, 2900 nM; at PDK-1 (setting [1]), 493 nM.

Regarding `COCCOc1cc2ncc3c(N)nc(-n4cnc(-c5ccccc5)c4)cc3c2cc1OC` [Ia-41, 9-Methoxy-8-(2-methoxyethoxy)-2-(4-phenyl-1H-imidazol-1-yl)benzo[c]-2,7-naphthyridin-4-amine], the IC50 is > 20000 nM against PKA (20 μM ATP), 18000 nM on Akt1 and 2030 nM at PDK-1 (setting [1]).

Turning to `COCCOc1cc2ncc3c(N)nc(-n4cnc(C)c4)cc3c2cc1OC` [Ia-42, 9-Methoxy-8-(2-methoxyethoxy)-2-(4-methyl-1H-imidazol-1-yl)benzo[c]-2,7-naphthyridin-4-amine], the IC50 against PKA (20 μM ATP) was > 20000 nM; against Akt1, 350 nM; on PDK-1 (setting [1]), 108 nM.

With `CCOc1cc2ncc3c(N)nc(-c4cccnc4)cc3c2cc1OCC` [Ia-46, 8,9-Diethoxy-2-pyridin-3-ylbenzo[c]-2,7-naphthyridin-4-amine], the IC50 against PKA (20 μM ATP) is > 20000 nM; against Akt1, 200 nM; against PDK-1 it was 74 nM.

As to `COc1cc2ncc3c(N)nc(-c4cncc(OC[C@H](N)Cc5cccc(C(F)(F)F)c5)c4)cc3c2cc1OC` [Ib-28, 2-[5-({(2R)-2-amino-3-[3-(trifluoromethyl)phenyl]propyl}oxy)pyridin-3-yl]-8,9-dimethoxybenzo[c]-2,7-naphthyridin-4-amine], the values for the IC50 against S6K and on PDK-1 (setting [1]) were 763 nM and 21 nM, respectively.

As to `COc1cc2ncc3c(N)nc(-c4cncc(OC[C@@H](N)Cc5cccc(Cl)c5)c4)cc3c2cc1OC` [Ib-29, 2-(5-{[(2S)-2-amino-3-(3-chlorophenyl)propyl]oxy}pyridin-3-yl)-8,9-dimethoxybenzo[c]-2,7-naphthyridin-4-amine], the IC50 at S6K is 76 nM; on PDK-1 (setting [1]) it was 8 nM.

Consider `COc1cc2ncc3c(N)nc(-c4cncc(OC[C@@H](C)N)c4)cc3c2cc1OC` [Ib-30, 2-(5-{[(2R)-2-aminopropyl]oxy}pyridin-3-yl)-8,9-dimethoxybenzo[c]-2,7-naphthyridin-4-amine], for which the IC50 was 97 nM at S6K and 2 nM on PDK-1 (setting [1]).

Take `COc1cc2ncc3c(N)nc(-c4cncc(OC[C@H](C)N)c4)cc3c2cc1OC` [Ib-31, 2-(5-{[(2S)-2-aminopropyl]oxy}pyridin-3-yl)-8,9-dimethoxybenzo[c]-2,7-naphthyridin-4-amine]: the results for the IC50 at S6K and on PDK-1 (setting [1]) were 235 nM and 6 nM, respectively.

With `COc1cc2ncc3c(N)nc(-c4cncc(OC[C@@H](N)Cc5ccc(OCc6ccccc6)cc5)c4)cc3c2cc1OC` [Ib-54, 2-[5-({(2S)-2-amino-3-[4-(benzyloxy)phenyl]propyl}oxy)pyridin-3-yl]-8,9-dimethoxybenzo[c]-2,7-naphthyridin-4-amine], the IC50 at PKA (20 μM ATP) was > 10000 nM; on Akt1, 3000 nM; at PDK-1 (setting [1]) it was 212 nM.

Regarding `COc1cc2ncc3c(N)nc(-n4cnc(CO)c4)cc3c2cc1OC` [Ib-69, [1-(4-Amino-8,9-dimethoxybenzo[c]-2,7-naphthyridin-2-yl)-1H-imidazol-4-yl]methanol], the figures for the IC50 on PKA (20 μM ATP), on Akt1 and at PDK-1 (setting [1]) were > 20000 nM, 2800 nM and 205 nM, respectively.
